Laboratory results published in article PMC6131760, “4-Phenyl-1,3-thiazole-2-amines as scaffolds for new antileishmanial agents” (The Journal of Venomous Animals and Toxins Including …, 2018).
Where two headings read alike, the source gives them in different places.

How the values were obtained:
[1] = system: promastigotes of Leishmania amazonensis (MHOM/BR/1973/M2269); assay: Antileishmanial assay against promastigotes (PrestoBlue viability); type: cell-based; conditions: L. amazonensis promastigotes
Description: All compounds were assayed against promastigotes of Leishmania amazonensis (MHOM/BR/1973/M2269). Promastigotes were grown in 199 media (Sigma, USA) supplemented with 10% (v/v) of fetal bovine serum, 1% penicillin (10,000 UI/mL)/streptomycin (10.0 mg/mL) (Sigma, USA). The parasites were collected at log phase, they were counted at the Neubauer chamber, their concentration was adjusted to 1 × 10^6 cell/mL, and their cells were seeded at a 96-wells plate. The 4-phenyl-2-aminothiazoles were added to the culture, considering concentrations ranging from 3.2 to 142 μM. Compounds were diluted in Dimethyl sulfoxide (DMSO) (25 mg/mL) and diluted in 199 media to generate a 1% DMSO starting solution of each test compound. Positive control with no compounds and DMSO control were considered at the assay. All plates were incubated at 25 °C for 48 h, and PrestoBlue® vital dye was added to the wells.
Viability was accessed with PrestoBlue® (Invitrogen, ThermoFisher) according to the manufacturer’s instructions. The reagent was added in each well (10 μL) and plates incubated for 2 h. Then, plates were read on a microplate reader (PowerWave HT, Biotek) with excitation/emission 560/590 nm (nm). The relative fluorescence units were used to generate the quantitative results. All compounds were analyzed as duplicates, and the parameters to calculate IC50 were obtained by GraphPad Prism, version 5.0. IC50 values were determined by the Hill equation rearranged. LogIC50=logEC50−logTop−Bottom/Y−Bottom−1/HillSlope

THP1 cells = assay: Cytotoxicity assay in THP-1 cells differentiated into macrophages (PrestoBlue); type: cell-based, human
Description: (§1) The cytotoxicity was measured in L929 and THP1 cell lines using PrestoBlue®Cell Viability Reagent (Thermo Scientific, Invitrogen) as described by Lall et al. with modifications. First, cells were maintained in RPMI 1640 (Gibco) supplemented with 10% fetal bovine serum (FBS) and 1% antibiotics (100 U/mL penicillin, 100 μg/mL streptomycin). Cell cultures were grown and maintained at 37 °C in a humidified incubator with 5% CO2. Then, L929 cells were seeded in 96-wells flat microtiter plate at a concentration of 1 × 10^5cells/mL (100 μL/well). To THP-1 cells, cultures were differentiated into macrophages by adding 50 ng/mL 12-myristate 13-acetate phorbol (PMA) (Calbiochem, San Diego, USA) in RPMI-free FBS. After 24 h of culturing, the adhered cells were washed with PBS and RPMI with 10% FBS were added. […] The plates were incubated for 48 h and, thereafter, 20 μL/well PrestoBlue® was added. The plates were incubated for further 2 h and the fluorescence was read at bottom using 540–570 nm excitation and 580–610 nm emission. The average of the fluorescence values of the control wells (medium plus PrestoBlue®) was subtracted from the fluorescence value of the positive controls (cells, medium, and PrestoBlue®) and from each experimental well (cells, medium, compounds and PrestoBlue®). In all cases, the CC50 was calculated as described as in the Antileishmanial assay Section. Selectivity indexes (SI) were calculated by dividing CC50 against each mammalian cell line by the IC50 against L. amazonensis (CC50/IC50).

VERO cells = assay: Cytotoxicity assay in Vero cells (MTT); type: cell-based, African green monkeys
Description: (§2) Cytotoxicity was also evaluated using Vero cells, a monkey kidney cell line obtained from the American Type Culture Collection (ATCC CCL-81; Manassas, VA). The cytotoxicity was determined by the 3-(4,5dimethylthiazol- 2-yl)-2,5-diphenyltetrazolium bromide (MTT) method according to a previously described procedure.
(§3) In all cases, the CC50 was calculated as described as in the Antileishmanial assay Section.
(§4) Selectivity indexes (SI) were calculated by dividing CC50 against each mammalian cell line by the IC50 against L. amazonensis (CC50/IC50).

L929 cells = assay: Cytotoxicity assay in L929 cells (PrestoBlue); type: cell-based
Description: as §1

[2] = Cytotoxicity assay in THP-1 cells differentiated into macrophages (PrestoBlue); type: cell-based, human; conditions: human, THP-1 cells differentiated into macrophages with PMA; PMA-differentiated THP-1, 48 h, PrestoBlue; read-out: CC50 THP1 cells
Description: as §1

[3] = Cytotoxicity assay in Vero cells (MTT); type: cell-based, African green monkeys; conditions: African green monkey, Vero cells (monkey kidney cell line, ATCC CCL-81); Vero cells, MTT
Description: as §2, §3, §4

[4] = Cytotoxicity assay in L929 cells (PrestoBlue); type: cell-based; conditions: mouse, L929 fibroblast cells; L929 fibroblasts, 48 h, PrestoBlue
Description: as §1

[5] = Leishmania amazonensis, 48 h, 48 h at 25 °C, PrestoBlue, 3.2 to 142 μM tested, read-out: IC50
[6] = PMA-differentiated THP-1, 48 h, PrestoBlue, read-out: CC50 THP1 cells
[7] = Vero cells, MTT, read-out: CC50 VERO cells
[8] = L929 fibroblasts, 48 h, PrestoBlue, read-out: CC50 L929 cells
[9] = 48 h at 25 °C, PrestoBlue, 3.2 to 142 μM tested, read-out: IC50

SMILES	IC50 [1, 5] [µM]	CC50 (THP1 cells; [6]) [µM]	pIC50 ([1]; pIC50 = −log10 (IC50))	CC50 (VERO cells; [7]) [µM]	CC50 (L929 cells; [8]) [µM]	IC50 [1, 9] [µM]	further results
C[C@@H]1[C@H](O)[C@@H](C)/C=C/C=C/C=C/C=C/C=C/C=C/C=C/[C@H](O[C@@H]2O[C@H](C)[C@@H](O)[C@H](N)[C@@H]2O)C[C@@H]2O[C@](O)(C[C@@H](O)C[C@@H](O)[C@H](O)CC[C@@H](O)C[C@@H](O)CC(=O)O[C@H]1C)C[C@H](O)[C@H]2C(=O)O [Amphotericin B, reference compound]	16.2	–	–	–	–	–	–
Nc1nc(-c2ccccc2)cs1 [Compound 1]	–	144	3.02	710	198	–	–
Cc1ccc(-c2csc(N)n2)cc1 [Compound 2]	–	135	3.97	658	160	108	–
CCc1ccc(-c2csc(N)n2)cc1 [Compound 3]	–	–	4.33	–	–	46.6	CC50 (THP1 cells): 117 µM; CC50 (VERO cells): 1220 µM; CC50 (L929 cells): 95.5 µM
Nc1nc(-c2ccc(Cl)c(Cl)c2)cs1 [Compound 4]	–	84.7	4.27	255	121	–	–
Nc1nc(-c2ccc(C(F)(F)F)cc2)cs1 [Compound 5]	–	92.2	4.27	512	106	–	–
CC(C)(C)c1ccc(-c2csc(N)n2)cc1 [Compound 6]	21	–	–	–	–	20.8	CC50 at 48 h [2]: 45.7 µM; melting point: 227 to 230 °C; IC50 ([1]; Leishmania amazonensis, pIC50 = −log10 (IC50), read-out: pIC50 (converted)): 20.9 µM; CC50 [3]: 118 µM; CC50 at 48 h [4]: 27.1 µM
Nc1nc(-c2ccc(O)cc2)cs1 [Compound 7]	–	–	inactive	651	–	–	CC50 THP1 cells (THP1 cells; PMA-differentiated THP-1, 48 h, PrestoBlue): inactive; IC50 ([1]; 48 h at 25 °C, PrestoBlue, 3.2 to 142 μM tested): inactive; CC50 L929 cells (L929 cells; L929 fibroblasts, 48 h, PrestoBlue): Inactive
Nc1nc(-c2ccc(Cl)cc2)cs1 [Compound 8]	–	82.2	3.94	596	115	116	–
N=C(N)c1ccc(OCCCCCOc2ccc(C(=N)N)cc2)cc1 [Pentamidine, reference compound]	10.8	–	–	–	–	–	–
